Experimental data as given in patent publication US20240139185A1, “COMPOUNDS THAT PARTICIPATE IN COOPERATIVE BINDING AND USES THEREOF” (Revolution Medicines, Inc., priority 2018, published 2024).

Columns and labels:
pERK in H358 cells = assay: pERK inhibition in H358 cells; format: cell-based, human; conditions: 4 hours treatment, read-out: Cellular pERK inhibition
How it was run: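 Human lung cancer H358 cells in RPMI/10% FBS were exposed to compound or DMSO for 4 h. Fixed and permeabilized cells were stained overnight at 4 C with anti-phospho-ERK1/2 (Thr202/Tyr204). Near-infrared imaging read the pERK signal at 800 nm, with DRAQ5 at 700 nm.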

BRAF-GTP-KRASWT complex = target: T1, BRAF-GTP-KRASWT complex (Homo sapiens, UniProt P01116+P62937); assay: KRAS-BRAF complex disruption TR-FRET with wild-type KRAS (G12C specificity); format: biochemical; conditions: with CYPA
T1 construct: substitute His6-KRas WT-GTP (1-169) for His6-KRas G12C-GTP (1-169); 500 nM of tagless CypA (1-165)
Method: (§1) In this example, TR-FRET was used to measure the compound-facilitated disruption of a KRAS-BRAF complex. A mixture of tagless Cyclophilin A, His6-KRAS G12C-GMP-PNP, and GST-BRAF RAS binding domain was added to a 384-well assay plate containing compounds of the invention and incubated for 3 hours. A mixture of Anti-His Eu-W1024 and anti-GST allophycocyanin was then added and the reaction was incubated for an additional 1.5 hours. TR-FRET signal was read on an EnVision microplate reader (Perkin Elmer, Ex 320 nm, Em 665/615 nm). Compounds that facilitate disruption of a KRAS_BRAF complex were identified as those eliciting a decrease in the TR-FRET ratio relative to DMSO control wells. To determine the presenter-dependence of the compound-mediated KRAS-BRAF complex disruption, Cyclophilin A was left out of the initial incubation (see Table 5). To determine G12C specificity of the compound-mediated KRAS-BRAF complex disruption, wild-type KRAS was used instead of G12C KRAS (see Table 5).
(§2) Reagents and Instrument • Tagless CYPA; 519 μM in PBS buffer, pH 7.4 • GST BRAF; 110 μM in PBS buffer, pH 7.4 • His6-KRASG12C-GMP-PNP; 50 μM in PBS buffer, pH 7.4 • His6-KRASWT-GMP-PNP; 40 μM in PBS buffer, pH 7.4 • Anti-His Eu-W1024 (LANCE® Eu-W1024; Perkin Elmer) • Anti-GST allophycocyanin (Anti-GST IgG conjugated to SureLight®-Allophycocyanin; Perkin Elmer; Product Number AD0059G) • Test compounds, 10 mM in 100% DMSO • EnVision (Perkin Elmer) • Combi MultiDrop liquid dispenser with 8-channel small volume cassette • 384-well ProxiPlate (black)
(§3) Experimental Protocol • 1. Use Mosquito to dispense 100 nL/well of compounds (varying concentration in […]) into 384-well black ProxiPlate to make assay-ready-plate (ARP). • 2. Make assay buffer containing 25 mM Hepes pH 7.3, 100 mM NaCl, 5 mM MgCl2, 0.05% BSA, and 0.002% Tween-20. • 3. Make PRE-MIX A: delivers final concentrations of 50 nM of His6-KRas G12C-GTP (1-169) and 500 nM of tagless CypA (1-165) in assay buffer. • a. […] Read on EnVision (Ex: 320 nm; Em1: 615 nm; Em2: 665 nm). • 8. […]

[1] = target: T2, BRAF-GTP-KRAS-G12C complex (Homo sapiens, UniProt P01116, G12C); assay: KRAS-BRAF complex disruption TR-FRET without CYPA (presenter dependence); format: biochemical
T2 construct: 50 nM of His6-KRas G12C-GTP (1-169)
Method: as §1, §2, §3

[2] = target: T3, BRAF-GTP-KRAS-G12C complex (Homo sapiens, UniProt P01116+P62937, G12C); assay: KRAS-BRAF complex disruption through competition with CYPA-compound by TR-FRET; conditions: biochemical BRAF-KRAS G12C-GTP disruption assay EC50, with CYPA
T3 construct: 50 nM of His6-KRas G12C-GTP (1-169); 500 nM of tagless CypA (1-165)
How it was run: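 Compound-driven loss of KRAS–BRAF RBD TR-FRET signal, Eu-anti-His/APC-anti-GST pair (10/50 nM, 1.5 h), following a 3 h room-temperature preincubation of 50 nM His6-KRAS G12C-GTP and 500 nM CypA in 25 mM Hepes pH 7.3 buffer. EC50 by 4-parameter fit. Variants used wild-type KRAS in place of G12C or no CypA.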

IC50 (pERK in H358 cells) | IC50 (BRAF-GTP-KRASWT complex) | IC50 [1] | EC50 [2] | SMILES
1 to 10 µM | > 30 µM | > 30 µM | ≤ 0.5 µM | CC1COC(=O)C2CCCN(N2)C(=O)C(NC(=O)C(C(C)C)N(C)C(=O)C2CN(C(=O)CCl)C2)Cc2cc(O)cc(c2)-c2ccc3c(c2)c(cn3CC2COC2)C1 (mixture of isomers) [Compound 226]
1 to 10 µM | > 30 µM | > 30 µM | ≤ 0.5 µM | CC1COC(=O)C2CCCN(N2)C(=O)C(NC(=O)C(C(C)C)N(C)C(=O)C2CN(C(=O)CCl)C2)Cc2cc(O)cc(c2)-c2ccc3c(S(C)(=O)=O)cn(c3c2)C1 (single isomer, unassigned) [Compound 110]
